Experimental data published in patent US10590460B2, “Selective enrichment medium for carbapenem-resistant bacteria” (priority 2008, dated 2020).

How the values were obtained:
[1] = test system: carbapenem-sensitive flora; assay: Culture of carbapenem-sensitive or carbapenem-resistant strains on CHROMagar Orientation medium with a carbapenem; format: cell-based
Protocol: Different strains of carbapenem-sensitive bacteria or carbapenem-resistant bacteria were cultured under three sets of conditions: • group 1: CHROMagar Orientation medium • group 2: CHROMagar Orientation medium in the presence of meropenem (0.065; 0.25; 1 or 4 mg/L); and • group 3: CHROMagar Orientation medium in the presence of imipenem (MSD, TIENAM (includes 50% imipenem) 0.0325; 0.125; 0.5 or 2 mg/L of imipenem)
Different strains of carbapenem-sensitive bacteria or carbapenem-resistant bacteria were cultured under two sets of conditions: • group 1: CHROMagar Orientation medium; and • group 2: CHROMagar Orientation medium in the presence of ertapenem (INVAZ; 0.0325; 0.065; 0.125; 0.25; 0.5 or 2 mg/L).

[2] = format: physicochemical
Protocol: (§1) Different strains of carbapenem-sensitive bacteria or carbapenem-resistant bacteria were cultured under three different sets of conditions and with different spreading concentrations: • group 1: CHROMagar Orientation medium • group 2: CHROMagar Orientation medium in the presence of imipenem (MSD, TIENAM (includes 50% imipenem) 1 or 2 mg/L imipenem), and • group 3: CHROMagar Orientation medium in the presence of meropenem (0.12 or 0.25 mg/L).
(§2) Culture plates were then incubated at 37° C. and analysed regularly to establish the growth or absence of growth of bacteria.

[3] = test system: carbapenem-sensitive bacteria; assay: Ageing tests on meropenem versus imipenem in CHROMagar Orientation medium; format: cell-based
Protocol: as §1, §2

stability in an agar medium (duration) [2] [months]	stability in an agar medium (in words) [2]	stability in the used culture medium compared to imipenem [2]	SMILES	minimum concentration needed to eliminate carbapenem-sensitive flora (in words) ([1]; ertapenem 0.0325-2 mg/L tested)	minimum concentration of meropenem relative to necessary minimum concentration of imipenem [1]	minimum concentration to eliminate carbapenem-sensitive flora [1] [mg/L]	inhibition of the growth of carbapenem-sensitive bacteria ([3]; 0.25 mg/L meropenem, 55 days in culture, 37° C.)	effectiveness in terms of inhibition compared to imipenem ([3]; ageing test, CHROMagar Orientation medium)
2 to 4	good	–	C[C@@H](O)[C@H]1C(=O)N2C(C(=O)O)=C(S[C@@H]3CN[C@H](C(=O)Nc4cccc(C(=O)O)c4)C3)[C@H](C)[C@H]12 [ertapenem]	falls between that of meropenem and imipenem	–	–	–	–
2 to 4	–	much higher stability	C[C@@H](O)[C@H]1C(=O)N2C(C(=O)O)=C(S[C@@H]3CN[C@H](C(=O)N(C)C)C3)[C@H](C)[C@H]12 [meropenem]	–	about ten times lower	0.25	always higher than inhibition obtained at a concentration of 0.12 mg/L of meropenem after 36 days in culture	much more effective than imipenem
–	–	–	C[C@@H](O)[C@H]1C(=O)N2C(C(=O)O)=C(SCCN=CN)C[C@H]12 [imipenem]	–	–	1	–	–
